Measured values taken from US5250543A, “Derivatives of 1,4-dihydropyridine, their preparation procedure and therapeutic compositions containing them” (priority 1991, dated 1993).
Structures can show the parent of a compound that is named as a salt. One block for each molecule: values may come before it.

What was measured:
DHP membranous site = test: Receptor binding at DHP membranous site with 3H-radiolabelled ligand isradipine; details: same value used as dose in aorta test, read-out: IC50 at the receptors
Protocol: (§1) For this purpose, the IC50 values were at first determined at the receptors (on the DHP membranous site with ^3 H-radiolabelled ligand isradipine and with these doses the percentage of inhibition in the contraction of the isolated aorta was determined.

rat's isolated aorta = test: Calcium blocking activity in vitro: KCl contraction of the rat's isolated aorta; type: cell-based
Protocol: The calcium blocking activity was determined in vitro by using the method of contracting the rat's isolated aorta with KCI (see Bernard Swynghedauw--Animal Experiments in Cardiology, Collection INSERM Medicine Sciences, Flammarion).
as §1

[1] = Solubility in water (noted in preparation); type: physicochemical; details: isolated powder, in words
[2] = Acute toxicity (intraperitoneal) in rats; details: rat, in vivo, ip, Sprague-Dawley rats, Example 1 given as 20 mg/ml aqueous suspension, nicardipine under the same conditions
Protocol: The acute toxicity of the compound of example 1 was determined on rats injected intraperitoneally (Sprague-Dawley rats) and the product was administered as a 20 mg/ml aqueous suspension.

[3] = system: conscious Wistar rats suffering from genetic hypertension; test: Effects on mean arterial pressure and heartbeat frequency in conscious rats suffering from genetic hypertension; type: in vivo, rat (Wistar); details: oral, 16 mg/kg; for Heartbeat frequency / tachycardiac effect (in words): early effect (nicardipine after five minutes)
Protocol: The effects were tested using conscious Wistar rats suffering from genetic hypertension (6 rats per compound). The compounds were administered orally as a 16 mg/kg (under 5.3 ml/kg) dose in suspension.

[4] = system: histamine hyperpermeability in Sprague-Dawley rats; test: Effect on histamine hyperpermeability (Evan's Blue intradermal extravasation); type: in vivo, rat (Sprague-Dawley)
Protocol: The effect of CRL 41695 administered intraperitoneally on hystamine hyperpermeability was tested on Sprague-Dawley rats.
The parameter tested was the effect on Evan's Blue intradermal extravasation induced by histamine injection.
24 hours after shaving and epilation of the rat's flanks, CRL 41695 was injected intraperitoneally at dose levels of 10 mg/kg (dispersed in 0.9% NaCl +5% carboxymethylcellulose) and 10 minutes later 0.25 ml/100 g of Evan's Blue at 2% injected intravenously.
0.1 ml of 0.9% NaCl was then injected intradermally in the left flank and 0.01 ml of histamine ([…]) in the right flank.
The rats were sacrificed after 40 minutes and the injection sites removed. The Evan's Blue was extracted from the skin with 65% formamide and the solvent was removed by filtration. The optical density was determined as 620 nm.

- IC50 (DHP membranous site): 3 nM
- Solubility in water [1]: water-insoluble
SMILES: COC(=O)C1=C(C)NC(C)=C(C(=O)O[C@H]2CCCN(CCCC(=O)c3c(OC)cc(OC)cc3OC)C2)[C@H]1c1cccc([N+](=O)[O-])c1 [Example 4, (+)(4S, 3'S) 2,6-dimethyl-4-(3-nitrophenyl)-5-methoxycarbonyl-1,4-dihydropyridine-3-carboxylic acid N-[3-(2,4,6-trimethoxybenzoyl)propyl]piperidine-3'-yl ester]
- inhibition at 0.003 µM (rat's isolated aorta; dose 3 × 10^-9 M (= receptor IC50)): 70%

- Solubility in water [1]: water-insoluble
SMILES: COC(=O)C1=C(C)NC(C)=C(C(=O)O[C@@H]2CCCN(CCCC(=O)c3c(OC)cc(OC)cc3OC)C2)[C@@H]1c1cccc([N+](=O)[O-])c1 [Example 5, (-)(4R, 3'R) 2,6-dimethyl-4-(3-nitrophenyl)-5-methoxycarbonyl-1,4-dihydropyridine-3-carboxylic acid N-[3-(2,4,6-trimethoxybenzoyl)propyl]piperidine-3-yl ester]

- Solubility in water [1]: water-insoluble
SMILES: COC(=O)C1=C(C)NC(C)=C(C(=O)O[C@H]2CCCN(CCCC(=O)c3c(OC)cc(OC)cc3OC)C2)[C@@H]1c1cccc([N+](=O)[O-])c1 [Example 6, (+)(4R, 3'S) 2,6-dimethyl-4-(3-nitrophenyl)-5-methoxycarbonyl-1,4-dihydropyridine-3-carboxylic acid N-[3-(2,4,6-trimethoxybenzoyl)propyl]piperidine-3'-yl ester]

- IC50 (DHP membranous site): 2 nM
- Solubility in water [1]: water-insoluble
SMILES: COC(=O)C1=C(C)NC(C)=C(C(=O)O[C@@H]2CCCN(CCCC(=O)c3c(OC)cc(OC)cc3OC)C2)[C@H]1c1cccc([N+](=O)[O-])c1 [Example 7, (-)(4S, 3'R) 2,6-dimethyl-4-(3-nitrophenyl)-5-methoxycarbonyl-1,4-dihydropyridine-3-carboxylic acid N-[3-(2,4,6-trimethoxybenzoyl)propyl]piperidine-3'-yl ester]
- inhibition at 0.002 µM (rat's isolated aorta; dose 2 × 10^-9 M (= receptor IC50)): 80%

The next lines start with the molecule.

SMILES: COC(=O)C1=C(C)NC(C)=C(C(=O)O[C@H]2CCCN(CCCC(=O)c3c(OC)cc(OC)cc3OC)C2)[C@H]1c1cccc([N+](=O)[O-])c1 (single isomer, unassigned) [Example 8, hydrochloride]
- IC50 (DHP membranous site): 4 nM
- inhibition at 0.004 µM (rat's isolated aorta; dose 4 × 10^-9 M (= receptor IC50)): 40%
- Solubility in water [1]: water-insoluble

SMILES: COC(=O)C1=C(C)NC(C)=C(C(=O)O[C@@H]2CCCN(CCCC(=O)c3c(OC)cc(OC)cc3OC)C2)[C@H]1c1cccc([N+](=O)[O-])c1 (single isomer, unassigned) [Example 9, hydrochloride]
- IC50 (DHP membranous site): 0.6 nM
- inhibition at 0.0006 µM (rat's isolated aorta; dose 6 × 10^-10 M (= receptor IC50)): 60%
- Solubility in water [1]: water-insoluble

SMILES: COC(=O)C1=C(C)NC(C)=C(C(=O)OC2CCCN(CCCC(=O)c3c(OC)cc(OC)cc3OC)C2)C1c1cccc([N+](=O)[O-])c1 (centres unmarked) [Example 1, 2,6-dimethyl-4-(3-nitro-phenyl)-5-methoxycarbonyl-1,4-dihydropyridine-3-carboxylic acid N-[3-(2,4,6-trimethoxybenzoyl)propyl]piperidine-3'-yl ester, hydrochloride]
- LD50 [2]: 249 ± 50 mg/kg
- Duration of significant hypotension [3]: at least 7 hours
- Heartbeat frequency, variation after 5 mins [3]: +13%
- Arterial pressure, variation after 3 hrs [3]: -50%
- Heartbeat frequency, variation after 5 hrs [3]: 0%
- Arterial pressure, variation after 7 hrs [3]: -42%
- Hypotension (in words) ([3]; during at least 7 hours): significantly raised
- Heartbeat frequency / tachycardiac effect (in words) [3]: only slightly increased
- Secondary tachycardiac effect (in words) [3]: not found
- Antihyperpermeable effect (intradermal concentration of Evan's Blue induced by histamine, in words) ([4]; 10 mg/kg intraperitoneal): decrease greatly the intradermal concentration of Evan's Blue
- Decrease in the intradermal concentration of Evan's Blue ([4]; ip, 10 mg/kg): 50%
- Solubility in water ([1]; hydrochloride): water-insoluble

SMILES: COC(=O)C1=C(C)NC(C)=C(C(=O)OC2CCCN(CCCC(=O)c3c(OC)cc(OC)cc3OC)C2)C1c1cccc([N+](=O)[O-])c1 (centres unmarked) [Example 2, 2,6-dimethyl-4-(-3-nitrophenyl)-5-methoxycarbonyl-1,4-dihydropyridine-3-carboxylic acid N-[3-(2,4,6,trimethoxybenzoyl)propyl]piperidine-3-yl ester]
- IC50 (DHP membranous site): 10 nM
- inhibition at 0.01 µM (rat's isolated aorta; dose 10^-8 M (= receptor IC50)): 60%
- Solubility in water [1]: soluble in water in the presence of acetic acid

SMILES: COC(=O)C1=C(C)NC(C)=C(C(=O)OCC2CCCN2CCCC(=O)c2c(OC)cc(OC)cc2OC)C1c1cccc([N+](=O)[O-])c1 (centres unmarked) [Example 3, 2,6-dimethyl-4-(3-nitrophenyl-5-methoxycarbonyl-1,4-dihydropyridine-3-carboxylic acid N-[3-(2,4,6-trimethoxybenzoyl)propyl]pyrrolidylmethyl ester, hydrochloride]
- Solubility in water [1]: water-insoluble

SMILES: COC(=O)C1=C(C)NC(C)=C(C(=O)OC2CCCN(CCCC(=O)c3c(OC)cc(OC)cc3OC)C2)C1c1cccc([N+](=O)[O-])c1 (centres unmarked) [Example 10, 2,6-dimethyl-4-(3-nitrophenyl)-5-methoxycarbonyl-1,4-dihydropyridine-3-carboxylic acid N-[3-(2,4,6-trimethoxybenzoyl)propyl]piperidine-3'-yl, lactate]
- Solubility in water [1]: soluble in cold water but is precipitated on warming

SMILES: COC(=O)C1=C(C)NC(C)=C(C(=O)OC2CCCN(CCCC(=O)c3c(OC)cc(OC)cc3OC)C2)C1c1cccc([N+](=O)[O-])c1 (centres unmarked) [Example 11, 2,6-dimethyl-4-(3-nitrophenyl)-5-methoxycarbonyl-1,4-dihydropyridine-3-carboxylic acid N-[3-(2,4,6-trimethoxybenzoyl)propyl]piperidine-3'-yl ester, glutamate]
- Solubility in water [1]: water-insoluble

SMILES: COC(=O)C1=C(C)NC(C)=C(C(=O)OC2CCCN(CCCC(=O)c3c(OC)cc(OC)cc3OC)C2)C1c1cccc([N+](=O)[O-])c1 (centres unmarked) [Example 12, 2,6-dimethyl-4-(3-nitrophenyl)-5-methoxycarbonyl-1,4-dihydropyridine-3-carboxylic acid N-[3-(2,4,6-trimethoxybenzoyl)propyl]piperidine-3'-yl ester, aspartate]
- Solubility in water [1]: water-insoluble

SMILES: COC(=O)C1=C(C)NC(C)=C(C(=O)OCCN(C)Cc2ccccc2)C1c1cccc([N+](=O)[O-])c1 (centres unmarked) [nicardipine, reference compound]
- LD50 [2]: 233 ± 65 mg/kg
- Time of maximum secondary tachycardiac effect [3]: 5 h
- Heartbeat frequency, variation after 5 mins [3]: +32%
- Arterial pressure, variation after 3 hrs [3]: -39%
- Heartbeat frequency, variation after 5 hrs [3]: +23%
- Arterial pressure, variation after 7 hrs [3]: -27%
- Heartbeat frequency / tachycardiac effect (in words) [3]: clear tachycardiac effect after five minutes
- Secondary tachycardiac effect (in words) [3]: secondary tachycardiae effect was also observed
